The nature of data set [1]: clinical. The settings on record: human, in vivo; for CL/F / bioavailability / Tmax / half-life: both; for bioavailability: F % (fraction bioavailable). The procedure:
The open-label preliminary study of the effects and pharmacokinetics of the prototype composition was conducted with six male and six female healthy, water loaded, non-smoking volunteer subjects, following the protocol described generally below. In summary, each subject was dosed up to four times over a period of one week with dosing administered every other day. […] All subjects were screened prior to the first treatment, including evaluations of medical history, complete physical exam including nasopharyngeal exam, serum chemistry including serum osmolality, urinalysis including urine osmolality.
On day one all subjects were asked to have his/her morning void prior to breakfast, and thereafter subjects started the water loading process. […] To achieve a steady state diuresis, the subjects were directed to drink a volume of water corresponding to at least 1.5% and up to 3% of body weight. The water loading process started about two hours prior to the dosing of the first subject. Subjects were asked to void every 20 minutes. To ensure continuous water loaded state, the subjects replaced their urinary output loss with an equivalent amount of fluid. Insensible loss was not measured or replaced. When the urinary output rate exceeded 10 ml/min in two consecutive measurements (defined as water loaded state) in the subjects, dosing began. Subjects were maintained in the water loaded state with equivalent fluid intake versus fluid loss.
Blood sampling for pharmacokinetic determinations was performed at 1, 1.5, 2, 3, 4 and 6 hours post dose. Two seven ml blood samples were collected at each time point. […] 3.2 (Pharsight Corporation, USA). A plasma concentration value below the limit of quantitation (“LOQ”) followed by values above the limit was set at ‘LOQ/2’ for the analysis and for the descriptive statistics on concentrations. Values below LOQ not followed by values above the LOQ were excluded from the analysis, and set to zero in the descriptive statistics on concentrations.
(§1) Other than the dose level, all procedures were the same as those described for day one.
as §1
Other than the dosing paradigm, all procedures were the same as described on day one.
Assay values below the level of detection that occurred between two non-zero concentrations were considered to be “missing” for purposes of calculating the AUC. […] Accordingly, an average terminal half-life (Avg T1/2) was calculated for each subject that included a treatment with evaluable half-lives in that subject. […] The AUC could be calculated for each treatment and subject using the calculated average T1/2 value.
The AUCall is the AUC calculated using the trapezoidal rule that assumes that the concentration declines to 0.00 at the next sample collection time following the last quantifiable concentration. In the cases where concentrations had not declined to below the limit of detection by the time of the last scheduled sample, AUCall was the same as AUCtlqc.
The AUCtlqc is the AUC as calculated to the Time of the Last Quantifiable Concentration. This value is extrapolated using the ratio of the last quantifiable concentration and the terminal elimination rate to give the AUC∞. Therefore AUC∞ is always larger than the AUCtlqc. AUCall will also always be equal to or greater than AUCtlqc, but may be larger or smaller than AUC∞.

For data set [2] the following is noted: in vivo, cited from earlier work.

Read-outs that look alike come from different tables or passages of the source.

The values below come from US20100160214A1 (SERENITY PHARMACEUTICALS CORPORATION, priority 2008, published 2010).

For `NC(=O)CC[C@@H]1NC(=O)[C@H](Cc2ccccc2)NC(=O)[C@H](Cc2ccc(O)cc2)NC(=O)CCSSC[C@@H](C(=O)N2CCC[C@H]2C(=O)N[C@H](CCCN=C(N)N)C(=O)NCC(N)=O)NC(=O)[C@H](CC(N)=O)NC1=O` [desmopressin, 1-desamino-8-D-arginine vasopressin], the results for the CL/F in data set [1] and in data set [1] (sc) were 383 mL/min and 233 mL/min, respectively. Moreover, the bioavailability in data set [1] is approximately 55%; in data set [1] (sc), 100%; in data set [2] (human, inhaled or intranasal), 3-5%; in data set [2] (po), “far less than one percent”. Moreover, the Tmax in data set [1] (sc) is 52.8 ± 20.9 min; in data set [1] (topical or ocular) it was 48 ± 24.4 min. In addition, the half-life in data set [1] (sc, Avg T1/2) was 101 ± 39.6 min; in data set [1] (sc, T1/2), 125 ± 19.2 min; in data set [1] (topical or ocular, Avg T1/2) it was 72 ± 25.2 min; in data set [1] (topical or ocular, T1/2) it was 83.4 ± 36.6 min. Moreover, the “AUC∞* (modified AUC∞ using average T1/2)” value in data set [1] (sc) came to 7.85 ± 4.21 pg·h/mL; in data set [1] (topical or ocular), 4.46 ± 3.09 pg·h/mL. Besides, the half life in data set [2] (human) is not below 90 min. The “range of Cmax” value in data set [2] (inhaled or intranasal, 20 ug) is given as 6-10 fold.

As usually defined, the CL/F is clearance divided by bioavailability, as obtained after extravascular dosing. Broadly, the bioavailability is the share of a dose that reaches the circulation, judged against a reference dose that is usually intravenous. As usually defined, the Tmax is the time from dosing to the highest level. For orientation: half-life means how long it takes for the measured level to halve.
